Experimental data: ChEMBL document CHEMBL2010722, “Structure-activity relationship study of beta-carboline derivatives as haspin kinase inhibitors” (Bioorg Med Chem Lett, 2012)

How the values were obtained:
[1] = biological target: Calcium/calmodulin-dependent protein kinase type II subunit gamma (Homo sapiens) (UniProt Q13555); assay: Inhibition of CaMK2g at 10 uM
[2] = biological target: Serine/threonine-protein kinase PAK 1 (Homo sapiens) (UniProt Q13153); assay: Inhibition of PAK1 at 10 uM
[3] = biological target: Cyclin-dependent kinase 2/cyclin A (Homo sapiens) (UniProt P24941+P20248+P78396); assay: Inhibition of CDK2-Cyclin A2 at 10 uM; assay type: protein-complex assay
[4] = biological target: Interleukin-1 receptor-associated kinase 1 (Homo sapiens) (UniProt P51617); assay: Inhibition of IRAK1 at 10 uM
[5] = biological target: SRSF protein kinase 2 (Homo sapiens) (UniProt P78362); assay: Inhibition of SRPK2 at 10 uM
[6] = biological target: Receptor tyrosine-protein kinase erbB-4 (Homo sapiens) (UniProt Q15303); assay: Inhibition of HER4 at 10 uM
[7] = biological target: Sphingosine kinase 2 (Homo sapiens) (UniProt Q9NRA0); assay: Inhibition of SPHK2 at 10 uM
[8] = biological target: Tyrosine-protein kinase ZAP-70 (Homo sapiens) (UniProt P43403); assay: Inhibition of ZAP70 at 10 uM
[9] = biological target: Dual specificity mitogen-activated protein kinase kinase 1 (Homo sapiens) (UniProt Q02750); assay: Inhibition of MAP2K1 at 10 uM
[10] = biological target: Vascular endothelial growth factor receptor 2 (Homo sapiens) (UniProt P35968); assay: Inhibition of KDR at 10 uM
[11] = biological target: MAP kinase-interacting serine/threonine-protein kinase 2 (Homo sapiens) (UniProt Q9HBH9); assay: Inhibition of MNK2 at 10 uM
[12] = biological target: Calcium/calmodulin-dependent protein kinase type IV (Homo sapiens) (UniProt Q16566); assay: Inhibition of CaMK4 at 10 uM
Liver = assay: Half life in mouse liver microsome at 3 uM; assay type: ADME; details: microsomes
[13] = biological target: Eukaryotic translation initiation factor 2-alpha kinase 3 (Homo sapiens) (UniProt Q9NZJ5); assay: Inhibition of PEK at 10 uM
[14] = biological target: Dual specificity mitogen-activated protein kinase kinase 4 (Homo sapiens) (UniProt P45985); assay: Inhibition of MAP2K4 at 10 uM
[15] = biological target: Leukocyte tyrosine kinase receptor (Homo sapiens) (UniProt P29376); assay: Inhibition of LTK at 10 uM
[16] = biological target: Dual specificity protein kinase TTK (Homo sapiens) (UniProt P33981); assay: Inhibition of TTK at 10 uM
[17] = biological target: Serine/threonine-protein kinase Nek2 (Homo sapiens) (UniProt P51955); assay: Inhibition of NEK2 at 10 uM
TAK1/TAB1 (Homo sapiens) = TAK1/TAB1 (Homo sapiens) (UniProt Q15750+O43318); assay: Inhibition of TAK1-TAB1 at 10 uM; assay type: protein-complex assay
[18] = biological target: Receptor-type tyrosine-protein kinase FLT3 (Homo sapiens) (UniProt P36888); assay: Inhibition of FLT3 at 10 uM
[19] = biological target: Casein kinase I isoform gamma-2 (Homo sapiens) (UniProt P78368); assay: Inhibition of CK1g2 at 10 uM
[20] = biological target: cAMP-dependent protein kinase catalytic subunit beta (Homo sapiens) (UniProt P22694); assay: Inhibition of PKACb (PRKACB) at 10 uM
[21] = biological target: Serine/threonine-protein kinase NIM1 (Homo sapiens) (UniProt Q8IY84); assay: Inhibition of NIM1 at 10 uM
[22] = biological target: Tyrosine-protein kinase Tec (Homo sapiens) (UniProt P42680); assay: Inhibition of TEC at 10 uM
[23] = biological target: Serine/threonine-protein kinase 38-like (Homo sapiens) (UniProt Q9Y2H1); assay: Inhibition of NDR2 at 10 uM
[24] = biological target: Ribosomal protein S6 kinase beta-2 (Homo sapiens) (UniProt Q9UBS0); assay: Inhibition of p70S6Kb at 10 uM
[25] = biological target: cGMP-dependent protein kinase 1 (Homo sapiens) (UniProt Q13976); assay: Inhibition of PRKG1 at 10 uM
[26] = biological target: High affinity nerve growth factor receptor (Homo sapiens) (UniProt P04629); assay: Inhibition of TRKA at 10 uM
[27] = biological target: Serine/threonine-protein kinase SIK2 (Homo sapiens) (UniProt Q9H0K1); assay: Inhibition of QIK at 10 uM
[28] = biological target: Ephrin type-A receptor 7 (Homo sapiens) (UniProt Q15375); assay: Inhibition of EPHA7 at 10 uM
[29] = biological target: Serine/threonine-protein kinase Nek4 (Homo sapiens) (UniProt P51957); assay: Inhibition of NEK4 at 10 uM
[30] = biological target: Ephrin type-A receptor 1 (Homo sapiens) (UniProt P21709); assay: Inhibition of EPHA1 at 10 uM
[31] = biological target: Protein kinase C iota type (Homo sapiens) (UniProt P41743); assay: Inhibition of PKCi at 10 uM
[32] = biological target: Insulin-like growth factor 1 receptor (Homo sapiens) (UniProt P08069); assay: Inhibition of IGF1R at 10 uM
[33] = biological target: MAP kinase-activated protein kinase 3 (Homo sapiens) (UniProt Q16644); assay: Inhibition of MAPKAPK3 at 10 uM
[34] = biological target: Homeodomain-interacting protein kinase 2 (Homo sapiens) (UniProt Q9H2X6); assay: Inhibition of HIPK2 at 10 uM
[35] = tested on: Platelet-derived growth factor receptor alpha (Homo sapiens), P16234 [T674I]; assay: Inhibition of PDGFRa T674I mutant at 10 uM
[36] = biological target: Serine/threonine-protein kinase Sgk3 (Homo sapiens) (UniProt Q96BR1); assay: Inhibition of SGK3 at 10 uM
[37] = biological target: Cytoplasmic tyrosine-protein kinase BMX (Homo sapiens) (UniProt P51813); assay: Inhibition of BMX at 10 uM
[38] = biological target: Protein kinase C theta type (Homo sapiens) (UniProt Q04759); assay: Inhibition of PKCq at 10 uM
[39] = tested on: Hepatocyte growth factor receptor (Homo sapiens), P08581 [Y1235D]; assay: Inhibition of MET Y1235D mutant at 10 uM
[40] = biological target: Tyrosine-protein kinase Fyn (Homo sapiens) (UniProt P06241); assay: Inhibition of FYN at 10 uM
[41] = biological target: Casein kinase I isoform epsilon (Homo sapiens) (UniProt P49674); assay: Inhibition of CK1e at 10 uM
[42] = biological target: Dual specificity protein kinase CLK2 (Homo sapiens) (UniProt P49760); assay: Inhibition of CLK2 at 10 uM
[43] = biological target: Cyclin-dependent kinase 1/cyclin B1 (Homo sapiens) (UniProt P06493+P14635); assay: Inhibition of CDC2-CycB1 at 10 uM; assay type: protein-complex assay
[44] = tested on: ALK tyrosine kinase receptor (Homo sapiens), Q9UM73 [R1275Q]; assay: Inhibition of ALK R1275Q mutant at 10 uM
[45] = biological target: Protein kinase C beta type (Homo sapiens) (UniProt P05771); assay: Inhibition of PKCbeta2 at 10 uM

Serine/threonine-protein kinase Nek2 (Homo sapiens), sequence (P51955 whole entry): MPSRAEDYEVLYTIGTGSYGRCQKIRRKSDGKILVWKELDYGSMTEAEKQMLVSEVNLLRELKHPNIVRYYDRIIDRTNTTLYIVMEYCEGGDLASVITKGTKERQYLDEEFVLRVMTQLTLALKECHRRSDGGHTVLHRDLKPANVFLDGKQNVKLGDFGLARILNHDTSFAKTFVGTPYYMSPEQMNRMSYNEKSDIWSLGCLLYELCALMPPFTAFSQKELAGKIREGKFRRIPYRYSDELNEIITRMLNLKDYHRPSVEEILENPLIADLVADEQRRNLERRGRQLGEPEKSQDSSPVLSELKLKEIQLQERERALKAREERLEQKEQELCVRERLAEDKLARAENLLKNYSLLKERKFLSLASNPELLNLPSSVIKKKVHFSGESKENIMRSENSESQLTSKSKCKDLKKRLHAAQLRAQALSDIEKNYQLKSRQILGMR
Receptor-type tyrosine-protein kinase FLT3 (Homo sapiens), sequence (P36888 whole entry, canonical isoform): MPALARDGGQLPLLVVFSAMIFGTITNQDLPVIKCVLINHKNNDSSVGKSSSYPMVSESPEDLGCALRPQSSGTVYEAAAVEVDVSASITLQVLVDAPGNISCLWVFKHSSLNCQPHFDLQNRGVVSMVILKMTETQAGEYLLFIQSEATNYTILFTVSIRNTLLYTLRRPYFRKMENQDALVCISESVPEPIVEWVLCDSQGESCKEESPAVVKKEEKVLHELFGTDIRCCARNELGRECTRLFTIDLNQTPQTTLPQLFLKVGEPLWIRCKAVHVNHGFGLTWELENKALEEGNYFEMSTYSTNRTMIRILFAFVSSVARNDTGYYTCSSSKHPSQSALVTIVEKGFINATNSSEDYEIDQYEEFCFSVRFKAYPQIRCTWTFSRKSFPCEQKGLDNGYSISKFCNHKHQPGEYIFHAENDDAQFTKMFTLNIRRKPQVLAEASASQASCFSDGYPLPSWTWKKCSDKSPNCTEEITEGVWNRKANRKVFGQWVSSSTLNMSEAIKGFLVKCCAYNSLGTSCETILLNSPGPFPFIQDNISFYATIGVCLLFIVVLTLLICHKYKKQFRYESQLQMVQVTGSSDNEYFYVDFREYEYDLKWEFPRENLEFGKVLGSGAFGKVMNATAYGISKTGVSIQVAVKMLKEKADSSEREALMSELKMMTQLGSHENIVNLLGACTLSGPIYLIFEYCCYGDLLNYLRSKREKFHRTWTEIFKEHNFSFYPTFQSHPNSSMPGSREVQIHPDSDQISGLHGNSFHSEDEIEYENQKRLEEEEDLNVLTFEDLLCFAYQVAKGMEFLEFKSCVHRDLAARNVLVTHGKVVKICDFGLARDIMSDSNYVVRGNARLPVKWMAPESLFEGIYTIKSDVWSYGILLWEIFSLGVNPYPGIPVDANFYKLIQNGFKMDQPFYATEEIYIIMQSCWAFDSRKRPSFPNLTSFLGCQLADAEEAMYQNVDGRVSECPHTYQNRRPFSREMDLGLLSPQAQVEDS
Receptor tyrosine-protein kinase erbB-4 (Homo sapiens), sequence (Q15303 whole entry): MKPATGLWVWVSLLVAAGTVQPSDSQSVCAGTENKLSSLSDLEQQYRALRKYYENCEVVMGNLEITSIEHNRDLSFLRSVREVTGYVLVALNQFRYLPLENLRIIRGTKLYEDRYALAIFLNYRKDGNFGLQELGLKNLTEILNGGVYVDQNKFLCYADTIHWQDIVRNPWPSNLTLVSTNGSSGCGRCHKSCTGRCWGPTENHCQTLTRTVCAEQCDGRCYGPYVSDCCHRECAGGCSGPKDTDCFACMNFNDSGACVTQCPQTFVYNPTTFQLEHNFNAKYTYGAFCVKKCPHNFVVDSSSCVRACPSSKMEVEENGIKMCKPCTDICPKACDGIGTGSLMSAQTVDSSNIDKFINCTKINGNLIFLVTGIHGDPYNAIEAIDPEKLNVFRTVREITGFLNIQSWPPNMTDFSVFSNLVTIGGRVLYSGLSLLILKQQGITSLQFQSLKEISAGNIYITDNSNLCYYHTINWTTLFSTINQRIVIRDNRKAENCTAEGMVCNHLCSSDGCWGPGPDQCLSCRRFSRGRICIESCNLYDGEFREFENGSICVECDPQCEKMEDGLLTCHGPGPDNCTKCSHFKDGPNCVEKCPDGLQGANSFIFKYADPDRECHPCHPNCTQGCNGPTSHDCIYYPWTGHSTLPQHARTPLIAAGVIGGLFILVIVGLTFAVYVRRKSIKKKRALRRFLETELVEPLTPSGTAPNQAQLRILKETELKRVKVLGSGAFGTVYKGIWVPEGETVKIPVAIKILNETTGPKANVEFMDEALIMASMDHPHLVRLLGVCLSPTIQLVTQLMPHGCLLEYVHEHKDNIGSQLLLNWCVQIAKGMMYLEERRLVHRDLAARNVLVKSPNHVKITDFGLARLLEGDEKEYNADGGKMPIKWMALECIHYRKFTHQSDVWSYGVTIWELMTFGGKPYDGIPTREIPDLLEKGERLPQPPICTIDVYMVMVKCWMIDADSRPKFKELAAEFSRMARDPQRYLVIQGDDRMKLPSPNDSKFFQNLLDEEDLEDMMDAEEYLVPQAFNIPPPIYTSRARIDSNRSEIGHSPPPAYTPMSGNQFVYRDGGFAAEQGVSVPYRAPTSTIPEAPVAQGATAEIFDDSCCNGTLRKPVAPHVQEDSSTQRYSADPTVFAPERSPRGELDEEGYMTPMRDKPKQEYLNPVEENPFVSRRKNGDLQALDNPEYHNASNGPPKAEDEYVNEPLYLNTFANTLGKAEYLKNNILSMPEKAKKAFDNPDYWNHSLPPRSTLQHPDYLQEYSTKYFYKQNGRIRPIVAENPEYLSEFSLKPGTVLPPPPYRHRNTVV
cGMP-dependent protein kinase 1 (Homo sapiens), sequence (Q13976 whole entry): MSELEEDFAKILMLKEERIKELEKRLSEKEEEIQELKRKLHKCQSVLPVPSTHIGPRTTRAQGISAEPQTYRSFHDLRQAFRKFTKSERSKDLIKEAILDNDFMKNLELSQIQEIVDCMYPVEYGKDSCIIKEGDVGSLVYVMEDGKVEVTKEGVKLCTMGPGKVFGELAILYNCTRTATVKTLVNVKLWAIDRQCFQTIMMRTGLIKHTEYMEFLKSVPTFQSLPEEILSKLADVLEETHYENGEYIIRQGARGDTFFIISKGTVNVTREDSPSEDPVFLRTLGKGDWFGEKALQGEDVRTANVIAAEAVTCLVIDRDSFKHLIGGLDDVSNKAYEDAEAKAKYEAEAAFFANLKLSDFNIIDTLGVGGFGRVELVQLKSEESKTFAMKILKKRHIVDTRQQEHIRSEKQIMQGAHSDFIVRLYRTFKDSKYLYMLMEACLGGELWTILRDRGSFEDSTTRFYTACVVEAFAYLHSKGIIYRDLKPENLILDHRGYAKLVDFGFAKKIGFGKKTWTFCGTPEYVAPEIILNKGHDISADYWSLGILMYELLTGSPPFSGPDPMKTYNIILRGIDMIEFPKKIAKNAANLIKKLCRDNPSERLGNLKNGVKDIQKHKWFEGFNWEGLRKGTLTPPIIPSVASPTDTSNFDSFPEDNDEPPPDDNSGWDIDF
Cytoplasmic tyrosine-protein kinase BMX (Homo sapiens), sequence (P51813 whole entry): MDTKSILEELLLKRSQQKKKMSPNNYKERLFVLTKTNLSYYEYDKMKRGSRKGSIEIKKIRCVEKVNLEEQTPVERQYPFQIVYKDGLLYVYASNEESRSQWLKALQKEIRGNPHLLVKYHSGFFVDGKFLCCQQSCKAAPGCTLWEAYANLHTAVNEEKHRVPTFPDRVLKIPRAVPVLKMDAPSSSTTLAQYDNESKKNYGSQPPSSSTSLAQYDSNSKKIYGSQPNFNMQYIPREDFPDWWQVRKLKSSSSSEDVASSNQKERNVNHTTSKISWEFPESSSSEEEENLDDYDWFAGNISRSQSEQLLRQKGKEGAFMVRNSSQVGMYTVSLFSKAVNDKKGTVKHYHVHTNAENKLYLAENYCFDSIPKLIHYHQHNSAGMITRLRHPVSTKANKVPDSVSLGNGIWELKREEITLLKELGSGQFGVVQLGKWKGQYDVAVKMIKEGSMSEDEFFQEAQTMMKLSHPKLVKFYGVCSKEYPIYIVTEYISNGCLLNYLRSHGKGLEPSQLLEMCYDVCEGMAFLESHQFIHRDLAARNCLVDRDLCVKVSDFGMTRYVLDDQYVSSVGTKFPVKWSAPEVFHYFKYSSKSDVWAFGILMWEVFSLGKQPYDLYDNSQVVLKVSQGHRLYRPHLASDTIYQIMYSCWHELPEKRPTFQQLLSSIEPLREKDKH
Calcium/calmodulin-dependent protein kinase type IV (Homo sapiens), sequence (Q16566 whole entry): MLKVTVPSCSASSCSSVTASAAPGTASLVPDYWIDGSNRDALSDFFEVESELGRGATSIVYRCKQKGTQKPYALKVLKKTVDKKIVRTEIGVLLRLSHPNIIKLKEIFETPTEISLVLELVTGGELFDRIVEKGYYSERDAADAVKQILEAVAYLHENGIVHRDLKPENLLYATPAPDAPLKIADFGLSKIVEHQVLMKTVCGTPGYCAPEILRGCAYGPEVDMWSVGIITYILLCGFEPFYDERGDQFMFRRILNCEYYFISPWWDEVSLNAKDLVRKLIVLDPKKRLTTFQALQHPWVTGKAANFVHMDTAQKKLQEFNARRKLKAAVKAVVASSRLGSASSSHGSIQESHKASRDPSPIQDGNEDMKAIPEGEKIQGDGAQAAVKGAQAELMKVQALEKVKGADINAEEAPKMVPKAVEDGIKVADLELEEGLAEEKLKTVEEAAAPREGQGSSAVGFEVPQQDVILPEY
MAP kinase-interacting serine/threonine-protein kinase 2 (Homo sapiens), sequence (Q9HBH9 whole entry, looked up): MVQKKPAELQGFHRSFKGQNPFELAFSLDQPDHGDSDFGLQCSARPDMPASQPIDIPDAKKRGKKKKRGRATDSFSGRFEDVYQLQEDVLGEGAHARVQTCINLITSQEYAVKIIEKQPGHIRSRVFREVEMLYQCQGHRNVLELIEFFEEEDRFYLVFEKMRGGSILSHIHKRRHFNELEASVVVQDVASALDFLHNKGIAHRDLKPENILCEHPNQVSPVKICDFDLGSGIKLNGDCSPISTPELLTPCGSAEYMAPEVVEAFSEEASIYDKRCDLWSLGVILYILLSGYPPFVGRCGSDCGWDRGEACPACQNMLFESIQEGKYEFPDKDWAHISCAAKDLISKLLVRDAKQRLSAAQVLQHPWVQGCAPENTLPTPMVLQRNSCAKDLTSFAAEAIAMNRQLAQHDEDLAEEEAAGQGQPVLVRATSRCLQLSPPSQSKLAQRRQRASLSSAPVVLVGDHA

Q: What does the source list for `COc1ccc2c3ccnc(C(F)(F)F)c3n(CCCCN)c2c1`?
A: inhibition [1]: 78%; inhibition [2]: 3%; inhibition [3]: 65%; inhibition [4]: 53%; inhibition [5]: 0%; inhibition [6]: 25%; inhibition [7]: 6%; inhibition [8]: 3%; inhibition [9]: 16%; inhibition [10]: 2%; inhibition [11]: 34%; inhibition [12]: 13%; t1/2 (Liver): 5.68 h; inhibition [13]: 0%; inhibition [14]: 10%; inhibition [15]: 5%; inhibition [16]: 6%; inhibition [17]: 1%; inhibition (TAK1/TAB1 (Homo sapiens)): 12%; inhibition [18]: 74%; inhibition [19]: 60%; inhibition [20]: 41%; inhibition [21]: 1%; inhibition [22]: 2%; inhibition [23]: 2%; inhibition [24]: 75%; inhibition [25]: 80%; inhibition [26]: 8%; inhibition [27]: 26%; inhibition [28]: 2%; inhibition [29]: 4%; inhibition [30]: 4%; inhibition [31]: 9%; inhibition [32]: 0%; inhibition [33]: 1%; inhibition [34]: 53%; inhibition [35]: 49%; inhibition [36]: 13%; inhibition [37]: 3%; inhibition [38]: 42%; inhibition [39]: 2%; inhibition [40]: 8%; inhibition [41]: 41%; inhibition [42]: 99%; inhibition [43]: 55%; inhibition [44]: 6%; inhibition [45]: 28%
